Test results reported in PMC7366380, “Discovery of a Potent and Selective Covalent Inhibitor and Activity-Based Probe for the Deubiquitylating Enzyme UCHL1, with Antifibrotic Activity” (Journal of the American Chemical Society, 2020).
Where “and” joins values, the source holds several entries; their conditions need not be identical. Equal entries are not always repeated.

Assays:
Experiment in all cases: In-cell proteome-wide competitive ABPP, HEK293: other DUBs and proteins
[1] = target: T1, DUBs and other proteins in HEK293 cells (Homo sapiens, UniProt P40818); conditions: for Log2 reporter intensity values: USP8: competition with ABP 2, DMSO substract (FC), replicates A-B; for Log2 reporter intensity values: USP8, DMSO subtracted
T1 sequence (P40818 1-1118): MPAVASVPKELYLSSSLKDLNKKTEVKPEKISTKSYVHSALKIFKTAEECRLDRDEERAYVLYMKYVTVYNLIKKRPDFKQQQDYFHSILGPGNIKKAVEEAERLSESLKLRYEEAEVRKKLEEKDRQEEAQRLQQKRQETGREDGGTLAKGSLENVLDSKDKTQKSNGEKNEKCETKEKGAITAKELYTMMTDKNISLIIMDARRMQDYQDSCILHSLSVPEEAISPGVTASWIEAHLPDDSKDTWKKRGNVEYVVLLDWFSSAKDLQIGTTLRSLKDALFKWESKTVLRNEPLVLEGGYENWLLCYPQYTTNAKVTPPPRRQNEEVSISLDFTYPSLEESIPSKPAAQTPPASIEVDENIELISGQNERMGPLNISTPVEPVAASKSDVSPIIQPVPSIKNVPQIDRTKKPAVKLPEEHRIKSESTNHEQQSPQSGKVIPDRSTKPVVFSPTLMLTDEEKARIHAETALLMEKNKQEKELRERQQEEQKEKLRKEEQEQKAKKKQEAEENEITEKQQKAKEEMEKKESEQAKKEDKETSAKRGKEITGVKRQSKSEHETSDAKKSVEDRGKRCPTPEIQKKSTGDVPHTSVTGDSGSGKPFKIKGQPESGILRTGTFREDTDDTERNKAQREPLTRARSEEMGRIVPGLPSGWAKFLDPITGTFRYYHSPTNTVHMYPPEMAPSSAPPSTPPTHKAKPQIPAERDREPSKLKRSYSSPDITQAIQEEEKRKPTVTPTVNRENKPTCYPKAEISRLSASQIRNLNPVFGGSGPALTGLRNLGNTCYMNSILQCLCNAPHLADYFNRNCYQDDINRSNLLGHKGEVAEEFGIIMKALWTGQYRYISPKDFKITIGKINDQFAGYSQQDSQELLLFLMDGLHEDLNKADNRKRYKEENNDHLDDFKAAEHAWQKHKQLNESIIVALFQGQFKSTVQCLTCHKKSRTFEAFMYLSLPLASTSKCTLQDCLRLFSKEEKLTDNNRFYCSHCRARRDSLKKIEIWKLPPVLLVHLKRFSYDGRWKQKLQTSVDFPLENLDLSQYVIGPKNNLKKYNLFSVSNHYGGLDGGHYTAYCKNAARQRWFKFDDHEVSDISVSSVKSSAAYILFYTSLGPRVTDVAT

[2] = target: DUBs and other proteins in HEK293 cells (Homo sapiens, UniProt Q92905); conditions: for Log2 reporter intensity values, COPS5: TMT replicates; for Log2 reporter intensity values: COPS5: competition with ABP 2, DMSO substract (FC); for Log2 reporter intensity values: COPS5 / Log2 reporter intensity values: replicates A-C; for Log2 t-test Difference / Log2 reporter intensity values: COPS5
Sequence of DUBs and other proteins in HEK293 cells (Homo sapiens, UniProt Q92905) (Q92905 whole entry): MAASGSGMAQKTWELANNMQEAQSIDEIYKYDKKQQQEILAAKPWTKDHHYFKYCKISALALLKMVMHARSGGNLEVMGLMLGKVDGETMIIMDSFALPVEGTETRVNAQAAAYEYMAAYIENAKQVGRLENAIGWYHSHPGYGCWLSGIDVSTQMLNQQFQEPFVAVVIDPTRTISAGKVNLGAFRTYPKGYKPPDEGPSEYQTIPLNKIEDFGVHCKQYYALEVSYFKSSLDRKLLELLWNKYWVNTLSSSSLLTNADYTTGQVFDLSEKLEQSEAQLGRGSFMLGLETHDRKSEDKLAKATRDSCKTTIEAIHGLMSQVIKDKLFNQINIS

[3] = target: T2, DUBs and other proteins in HEK293 cells (Homo sapiens, UniProt Q9Y4E8); conditions: replicates A-C; for Log2 reporter intensity values: USP15: competition with ABP 2, DMSO substract (FC); for Log2 reporter intensity values: USP15, DMSO subtracted
T2 sequence (Q9Y4E8 1-981): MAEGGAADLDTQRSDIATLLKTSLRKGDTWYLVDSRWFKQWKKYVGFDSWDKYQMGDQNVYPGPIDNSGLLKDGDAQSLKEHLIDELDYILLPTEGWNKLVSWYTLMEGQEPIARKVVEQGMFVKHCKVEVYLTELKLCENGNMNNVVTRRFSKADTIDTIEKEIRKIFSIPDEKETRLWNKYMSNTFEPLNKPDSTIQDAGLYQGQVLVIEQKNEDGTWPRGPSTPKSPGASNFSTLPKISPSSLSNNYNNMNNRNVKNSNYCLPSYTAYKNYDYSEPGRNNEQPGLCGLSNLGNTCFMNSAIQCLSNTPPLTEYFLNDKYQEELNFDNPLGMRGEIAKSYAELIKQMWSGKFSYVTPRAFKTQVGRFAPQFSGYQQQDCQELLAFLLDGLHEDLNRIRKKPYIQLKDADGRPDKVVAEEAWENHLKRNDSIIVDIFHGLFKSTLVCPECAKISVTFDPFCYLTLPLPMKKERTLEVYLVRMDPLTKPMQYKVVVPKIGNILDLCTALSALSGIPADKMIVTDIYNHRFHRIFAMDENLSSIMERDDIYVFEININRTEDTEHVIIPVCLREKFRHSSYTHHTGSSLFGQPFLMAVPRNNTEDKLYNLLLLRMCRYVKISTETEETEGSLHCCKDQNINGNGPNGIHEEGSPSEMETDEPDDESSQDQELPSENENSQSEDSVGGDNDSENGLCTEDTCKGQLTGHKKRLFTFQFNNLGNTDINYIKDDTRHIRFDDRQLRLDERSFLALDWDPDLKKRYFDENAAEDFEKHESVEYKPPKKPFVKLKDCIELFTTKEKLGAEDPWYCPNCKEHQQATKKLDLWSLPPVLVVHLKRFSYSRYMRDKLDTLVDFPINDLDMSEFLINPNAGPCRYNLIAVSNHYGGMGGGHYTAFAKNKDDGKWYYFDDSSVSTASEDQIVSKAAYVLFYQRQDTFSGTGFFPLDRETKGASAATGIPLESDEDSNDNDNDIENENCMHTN

[4] = target: DUBs and other proteins in HEK293 cells (Homo sapiens, UniProt Q9Y5T5); conditions: replicates A-C; for Log2 reporter intensity values: USP16: competition with ABP 2, DMSO substract (FC); for Log2 reporter intensity values: USP16, DMSO subtracted
Sequence of DUBs and other proteins in HEK293 cells (Homo sapiens, UniProt Q9Y5T5) (Q9Y5T5 whole entry): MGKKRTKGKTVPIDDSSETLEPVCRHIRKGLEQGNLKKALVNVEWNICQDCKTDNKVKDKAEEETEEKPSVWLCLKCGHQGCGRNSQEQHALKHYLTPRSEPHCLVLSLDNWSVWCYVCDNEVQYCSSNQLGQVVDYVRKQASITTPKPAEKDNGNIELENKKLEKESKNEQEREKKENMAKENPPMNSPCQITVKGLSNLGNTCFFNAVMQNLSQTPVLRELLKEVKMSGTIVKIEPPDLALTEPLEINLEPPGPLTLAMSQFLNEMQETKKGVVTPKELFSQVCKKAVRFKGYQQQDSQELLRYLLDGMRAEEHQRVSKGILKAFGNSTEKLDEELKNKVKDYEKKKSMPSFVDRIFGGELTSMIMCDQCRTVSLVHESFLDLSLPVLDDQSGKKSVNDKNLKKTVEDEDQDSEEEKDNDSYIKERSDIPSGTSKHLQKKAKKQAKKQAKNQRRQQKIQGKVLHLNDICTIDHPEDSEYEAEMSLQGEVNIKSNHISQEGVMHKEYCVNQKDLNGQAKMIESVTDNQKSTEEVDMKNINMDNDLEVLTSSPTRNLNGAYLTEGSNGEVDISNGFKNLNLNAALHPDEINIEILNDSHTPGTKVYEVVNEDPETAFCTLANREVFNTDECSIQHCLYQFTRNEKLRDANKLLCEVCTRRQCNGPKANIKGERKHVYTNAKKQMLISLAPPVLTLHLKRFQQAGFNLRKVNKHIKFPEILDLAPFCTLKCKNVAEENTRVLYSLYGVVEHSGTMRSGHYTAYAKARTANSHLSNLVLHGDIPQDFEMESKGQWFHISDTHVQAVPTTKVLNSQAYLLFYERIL

N#CN1CCC[C@@H]1C(=O)N1CCc2c(-c3c[nH]c4ncccc34)cccc21 [Compound 3]
Log2 reporter intensity values: USP8 ([1]; 3 at 1 μM): 0.95 and 1.134
Log2 reporter intensity values: USP8 ([1]; 3 at 4 μM): 0.8355 and 0.9159
Log2 reporter intensity values ([1]; 3_1 μM, replicates A-B (C NaN)): -0.05241 and 0.1313
Log2 reporter intensity values ([1]; 3_4 μM, replicates A-B (C NaN)): -0.167 and -0.08651
Log2 reporter intensity values ([1]; 3 at 1 μM, replicates A-C): -0.07394 and 0.1811
Log2 reporter intensity values ([1]; 3 at 4 μM, replicates A-C): -0.2593 and -0.1267
Log2 reporter intensity values, COPS5 ([2]; 1 μM 3 (60 min) + 20 nM ABP 2 (10 min), All values): 0.001825 and 0.1477 and 0.03353
Log2 reporter intensity values, COPS5 ([2]; 1 μM 3 (60 min) + 20 nM ABP 2 (10 min), DMSO subtracted): 0.05994 and 0.2058 and 0.09165
Log2 reporter intensity values, COPS5 ([2]; 4 μM 3 (60 min) + 20 nM ABP 2 (10 min), All values): -0.03978 and -0.2063 and -0.1486
Log2 reporter intensity values, COPS5 ([2]; 4 μM 3 (60 min) + 20 nM ABP 2 (10 min), DMSO subtracted): 0.01834 and -0.1481 and -0.09052
Log2 reporter intensity values: COPS5 ([2]; 3 at 1 μM): 1.042 and 1.153 and 1.066
Log2 reporter intensity values: COPS5 ([2]; 3 at 4 μM): 1.013 and 0.9024 and 0.9392
Log2 t-test Difference ([2]; 3 - 1 μM): -0.04319
Log2 t-test Difference ([2]; 3 - 4 μM): -0.2358
Log2 reporter intensity values ([2]; 3_1 μM, DMSO subtracted): 0.04234 and 0.1532 and 0.0655
Log2 reporter intensity values ([2]; 3_4 μM, DMSO subtracted): 0.01271 and -0.09767 and -0.0609
Log2 reporter intensity values ([2]; 3 at 1 μM, DMSO subtracted): 0.05994 and 0.2058 and 0.09165
Log2 reporter intensity values ([2]; 3 at 4 μM, DMSO subtracted): 0.01834 and -0.1481 and -0.09052
Log2 reporter intensity values: USP15 ([3]; 3 at 1 μM): 1.093 and 1.008 and 1.068
Log2 reporter intensity values: USP15 ([3]; 3 at 4 μM): 1.017 and 0.9783 and 1.019
Log2 reporter intensity values ([3]; 3_1 μM): 0.09224 and 0.007674 and 0.06804
Log2 reporter intensity values ([3]; 3_4 μM): 0.01634 and -0.02192 and 0.0187
Log2 reporter intensity values ([3]; 3 at 1 μM): 0.1276 and 0.0114 and 0.09532
Log2 reporter intensity values ([3]; 3 at 4 μM): 0.02376 and -0.03158 and 0.02709
Log2 reporter intensity values: USP16 ([4]; 3 at 1 μM): 1.04 and 1.242 and 1.156
Log2 reporter intensity values: USP16 ([4]; 3 at 4 μM): 1.088 and 0.9104 and 1.039
Log2 reporter intensity values ([4]; 3_1 μM): 0.03732 and 0.2403 and 0.1536
Log2 reporter intensity values ([4]; 3_4 μM): 0.08611 and -0.09176 and 0.0368
Log2 reporter intensity values ([4]; 3 at 1 μM): 0.0559 and 0.3132 and 0.2089
Log2 reporter intensity values ([4]; 3 at 4 μM): 0.1221 and -0.1354 and 0.05518
